Results: patent publication US20230027026A1, “FUSED PYRIMIDINE COMPOUNDS, COMPOSITIONS AND MEDICINAL APPLICATIONS THEREOF” (JUBILANT BIOSYS LIMITED, priority 2019, published 2023)

Experiments:
EGFR (T790M/L858R) = target: T1, EGFR (T790M/L858R) (Homo sapiens, UniProt P00533, L858R/T790M); assay: EGFR L858R/T790M enzyme inhibition assay (HTRF); format: biochemical; conditions: 5 μM ATP, 60 min, read-out: EGFR_L858R T790M_IC50_nM
T1 construct: GST; purchased Proqinase
Protocol: Example 2: EGFR L858R & Del19/T790M Assay Protocol (to Find the IC50 for the Compounds Using HTRF Method)
Reagents for Enzyme Assay:
• 1. Enzyme Assay Buffer: 60 mM HEPES (pH 7.4), 50 mM NaCl, 20 mM MgCl2, 5 mM MnCl2, filtered using 0.2 μm pore size, stored at 4° C. • Supplements (added fresh to the enzyme buffer): 1M DTT stock was made, 5% BSA stock and 0.1M Na3OV4 stored at 4° C. Enzyme assay buffer 50 mL, 1 M DTT 100 μL, 5% BSA 500 μL, 0.1 M Na3OV4 50 μL. • 2. GST-hEGFR (L858R), active: EGFR (T790M/L858R), active (Proqinase), 3.6 μM stock; 2.5 nM in final assay. • 3. Gastrin Precusor-Biotinylated: Gastrin precursor (Tyr87) biotinylated peptide, EEAY*GWM, Cell Signaling Tech 1310, Lot-7, Want final 0.5 μM in assay. • 4. ATP: 10 mM stock in 100 μL Enzyme assay buffer pH 7.4 prepared freshly, want 5 μM in final assay. • 5. Test compounds: Powders were dissolved in 100% DMSO and made up to a final stock concentration of 10 mM (volume in μL to add for 10 mM=mg powder X 10^5/MW). Final compound concentration in the assay plate started at 10 μM.
• 1. HTRF buffer: 50 mM Tris —HCl, pH-7.5, 100 mM NaCl, 0.1% BSA, 0.05% Tween20, 0.5 mM EDTA, filtered using 0.2 μm pore size, stored at 4° C. • Phycolink® Streptavidin-Allophycocyanin (SA-APC) Prozyme, Cat. #PJ25S, Lot #896 085, 2.06 mg/mL, APC concentration is 11.6 μM, streptavidin concentration is 15.5 μM. Want 12 nM final in assay (based on streptavidin concentration). • 2. (Europium) Eu-W1024 Anti-phosphotyrosine (PT-66) Antibody: Perkin Elmer (Product Number: AD0068), monoclonal IgG1 that recognizes phosphotyrosine peptide 100 μg/ml stock. Want 0.1 nM final in assay.
• 1. The compound dilution was made by TECAN as per the above scheme. • 2. 16 μL of diluted compound was added to the assay plate by using TECAN. • 3. 10 μL of enzyme mix was added to each well except mins. • 4. 20 μL of substrate and ATP mix were added into each well of the assay plate, manually. • 5. The plate was incubated on a laboratory shaker at room temperature for 60 min. • 6. Meanwhile, the HTRF mix was prepared and 75 μL was added to the HTRF plate. • 7. When the incubation was over, 10 μL of the reaction mixture was transferred to the HTRF assay plate and incubated on a laboratory shaker for 30 min at room temperature. • 8. The reading was taken in Pherastar (ext 337 nm, Em 665 & 620 nm). • 9. The results were analyzed using Graphpad prism after calculation of the z factor, signal window and % inhibition to get the IC50.

[1] = test system: H1975 cells (L858R_T790M mutant); assay: H1975 proliferation assay; format: cell-based; conditions: Homo sapiens, NCI-H1975; read-out: Proliferation_Assay H1975 cells-EC50_nM L858R_T790M_mutant
A431 cells = assay: Cellular proliferation (Alamar Blue) assay, A431; format: cell-based; conditions: Homo sapiens, A-431; A431 cells, 72 hr, Alamar Blue; read-out: A431 IC50
Outline: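 Following a 16–18 h pre-incubation, cells received compound or DMSO for 72 h at 37 °C across a 10–0.0005 μM final range. Proliferation was then scored by Alamar Blue fluorescence (540 nm excitation, 590 nm emission) after 3 h.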

[2] = target: EGFR (A767_dupASV) expressing Ba/F3 stable cell line (Homo sapiens, UniProt P00533, DUP767-769, cells depend on it); assay: Cellular proliferation (Alamar Blue) assay, EGFR A767_dupASV Ba/F3; format: cell-based; conditions: EGFR A767_dupASV Ba/F3, 72 hr, read-out: A767 IC50
Outline: (§1)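 Ba/F3 lines were seeded at 15,000 cells/well in RPMI with 10% FBS and rested 16–18 h at 37 °C. Compounds were added as 3-fold serial dilutions (final 10–0.0005 μM) for 72 h, then Alamar Blue was added for 3 h and fluorescence read at 540 nm excitation/590 nm emission.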

[3] = target: EGFR(D770_N771insSVD) expressing Ba/F3 stable cell line (Homo sapiens, UniProt P00533, DUP768-770, cells depend on it); assay: Cellular proliferation (Alamar Blue) assay, EGFR D770_N771insSVD Ba/F3; format: cell-based; conditions: EGFR D770_N771insSVD Ba/F3, 72 hr, read-out: D770 IC50
Outline: as §1

Chain of EGFR (A767_dupASV) expressing Ba/F3 stable cell line (P00533 with tags, fused parts or gaps DUP767-769): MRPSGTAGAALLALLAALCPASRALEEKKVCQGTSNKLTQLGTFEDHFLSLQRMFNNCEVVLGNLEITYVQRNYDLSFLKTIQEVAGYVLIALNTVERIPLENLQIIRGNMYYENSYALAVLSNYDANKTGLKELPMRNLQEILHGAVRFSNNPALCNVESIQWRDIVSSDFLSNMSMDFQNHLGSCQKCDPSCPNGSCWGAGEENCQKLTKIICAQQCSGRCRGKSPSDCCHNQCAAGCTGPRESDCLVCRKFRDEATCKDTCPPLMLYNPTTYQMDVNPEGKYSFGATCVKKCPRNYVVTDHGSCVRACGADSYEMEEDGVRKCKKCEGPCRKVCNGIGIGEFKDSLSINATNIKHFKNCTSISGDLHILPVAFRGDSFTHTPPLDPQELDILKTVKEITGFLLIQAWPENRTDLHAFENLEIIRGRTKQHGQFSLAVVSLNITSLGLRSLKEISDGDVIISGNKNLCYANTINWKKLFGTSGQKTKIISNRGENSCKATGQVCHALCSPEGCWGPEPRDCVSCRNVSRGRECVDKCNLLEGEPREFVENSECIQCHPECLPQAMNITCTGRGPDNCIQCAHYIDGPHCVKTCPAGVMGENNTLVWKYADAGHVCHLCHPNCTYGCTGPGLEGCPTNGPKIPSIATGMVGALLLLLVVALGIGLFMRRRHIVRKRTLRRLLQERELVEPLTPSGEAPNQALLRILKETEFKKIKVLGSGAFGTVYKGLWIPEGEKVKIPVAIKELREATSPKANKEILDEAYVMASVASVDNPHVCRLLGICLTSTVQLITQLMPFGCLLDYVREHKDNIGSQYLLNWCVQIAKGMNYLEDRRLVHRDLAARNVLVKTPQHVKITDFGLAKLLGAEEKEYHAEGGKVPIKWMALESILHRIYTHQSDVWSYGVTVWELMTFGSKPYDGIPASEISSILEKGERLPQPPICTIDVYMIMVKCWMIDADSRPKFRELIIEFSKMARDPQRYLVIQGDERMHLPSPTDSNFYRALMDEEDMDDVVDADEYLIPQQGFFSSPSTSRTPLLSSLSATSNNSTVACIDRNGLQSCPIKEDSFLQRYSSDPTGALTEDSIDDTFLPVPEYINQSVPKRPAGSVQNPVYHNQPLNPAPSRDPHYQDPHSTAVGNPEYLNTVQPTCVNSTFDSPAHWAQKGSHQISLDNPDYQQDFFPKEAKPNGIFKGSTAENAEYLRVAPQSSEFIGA
T1 sequence (P00533 25-1210 T790M/L858R): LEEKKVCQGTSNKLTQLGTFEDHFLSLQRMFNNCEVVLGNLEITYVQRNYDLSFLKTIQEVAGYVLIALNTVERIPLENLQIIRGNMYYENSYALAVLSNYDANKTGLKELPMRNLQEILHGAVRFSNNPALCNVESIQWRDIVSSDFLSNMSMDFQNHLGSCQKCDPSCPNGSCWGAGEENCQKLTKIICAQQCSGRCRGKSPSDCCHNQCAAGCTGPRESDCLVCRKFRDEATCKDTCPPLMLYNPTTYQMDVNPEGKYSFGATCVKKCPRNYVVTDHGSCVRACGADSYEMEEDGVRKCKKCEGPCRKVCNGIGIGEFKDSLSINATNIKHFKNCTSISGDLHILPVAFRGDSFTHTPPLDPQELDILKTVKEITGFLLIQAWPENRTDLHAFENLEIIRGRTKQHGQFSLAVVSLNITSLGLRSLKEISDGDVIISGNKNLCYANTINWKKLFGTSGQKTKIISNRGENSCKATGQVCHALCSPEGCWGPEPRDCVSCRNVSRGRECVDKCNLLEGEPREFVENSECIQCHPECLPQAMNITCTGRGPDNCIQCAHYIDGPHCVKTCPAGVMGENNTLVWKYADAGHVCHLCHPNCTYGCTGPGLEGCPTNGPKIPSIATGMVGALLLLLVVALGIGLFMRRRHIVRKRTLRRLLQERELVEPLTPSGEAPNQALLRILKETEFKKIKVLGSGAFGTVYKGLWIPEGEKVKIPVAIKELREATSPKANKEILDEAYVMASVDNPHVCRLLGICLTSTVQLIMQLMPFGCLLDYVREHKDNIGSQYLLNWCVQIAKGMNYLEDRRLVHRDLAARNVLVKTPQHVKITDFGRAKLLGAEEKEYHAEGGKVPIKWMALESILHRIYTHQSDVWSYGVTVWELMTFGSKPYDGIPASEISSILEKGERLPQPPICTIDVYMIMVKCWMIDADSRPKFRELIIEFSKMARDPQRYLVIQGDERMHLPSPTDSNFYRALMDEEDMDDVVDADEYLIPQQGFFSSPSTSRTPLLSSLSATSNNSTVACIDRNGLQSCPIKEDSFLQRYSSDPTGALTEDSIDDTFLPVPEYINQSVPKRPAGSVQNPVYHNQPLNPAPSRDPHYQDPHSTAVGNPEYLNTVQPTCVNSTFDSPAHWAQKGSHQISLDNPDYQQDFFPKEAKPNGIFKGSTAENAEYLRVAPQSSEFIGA
Chain of EGFR(D770_N771insSVD) expressing Ba/F3 stable cell line (P00533 with tags, fused parts or gaps DUP768-770): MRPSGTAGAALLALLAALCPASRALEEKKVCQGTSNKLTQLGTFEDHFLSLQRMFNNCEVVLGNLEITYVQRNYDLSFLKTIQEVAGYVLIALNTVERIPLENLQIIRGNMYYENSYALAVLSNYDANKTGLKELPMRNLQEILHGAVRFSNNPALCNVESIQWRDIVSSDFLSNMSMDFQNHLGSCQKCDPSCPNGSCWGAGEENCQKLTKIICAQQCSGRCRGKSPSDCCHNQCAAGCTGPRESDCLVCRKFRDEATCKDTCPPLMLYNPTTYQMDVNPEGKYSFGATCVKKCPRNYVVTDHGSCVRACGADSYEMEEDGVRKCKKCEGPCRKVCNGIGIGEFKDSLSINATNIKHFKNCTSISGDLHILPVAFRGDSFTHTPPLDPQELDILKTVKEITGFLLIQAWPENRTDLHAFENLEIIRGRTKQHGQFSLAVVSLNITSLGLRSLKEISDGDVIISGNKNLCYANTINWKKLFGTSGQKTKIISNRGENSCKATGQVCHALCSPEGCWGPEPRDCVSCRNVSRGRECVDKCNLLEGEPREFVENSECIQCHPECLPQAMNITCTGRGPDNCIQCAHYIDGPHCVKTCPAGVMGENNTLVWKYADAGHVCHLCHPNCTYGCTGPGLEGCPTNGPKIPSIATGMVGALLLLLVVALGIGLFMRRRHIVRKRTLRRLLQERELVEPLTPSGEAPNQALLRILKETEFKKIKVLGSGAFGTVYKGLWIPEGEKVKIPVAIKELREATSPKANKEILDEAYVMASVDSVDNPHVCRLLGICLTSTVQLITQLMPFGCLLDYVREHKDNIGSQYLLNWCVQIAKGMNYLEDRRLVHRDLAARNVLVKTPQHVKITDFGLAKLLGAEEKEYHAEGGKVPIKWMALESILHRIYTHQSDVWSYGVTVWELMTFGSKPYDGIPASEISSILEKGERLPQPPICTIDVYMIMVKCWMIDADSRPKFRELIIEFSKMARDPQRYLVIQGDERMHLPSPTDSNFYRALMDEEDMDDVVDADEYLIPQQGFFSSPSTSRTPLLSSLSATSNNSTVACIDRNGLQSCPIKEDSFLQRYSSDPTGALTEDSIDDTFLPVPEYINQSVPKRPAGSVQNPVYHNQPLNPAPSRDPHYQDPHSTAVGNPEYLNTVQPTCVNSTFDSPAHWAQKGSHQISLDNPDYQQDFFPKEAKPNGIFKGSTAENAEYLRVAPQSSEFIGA

Row | IC50 (EGFR (T790M/L858R)) [nM] | EC50 [1] [nM] | IC50 (A431 cells) [nM] | GI50 [2] [nM] | GI50 [3] [nM] | Structure (SMILES)
1 | 660 | 1080 | 4090 | 2600 | 431 | Cc1csc(Nc2ncc3c(n2)N(C2CCCC(NC(=O)/C=C/CN(C)C)C2)C(=O)N(Cc2ccccc2)C3)n1 (stereo not shown) [Compound 29, (E)-N-(3-(3-benzyl-7-((4-methylthiazol-2-yl)amino)-2-oxo-3,4-dihydropyrimido[4,5-d]pyrimidin-1(2H)-yl)cyclohexyl)-4-(dimethylamino)but-2-enamide]
2 | 1 | 15.7 | 371 | 1170 | 2310 | COCCn1cc(Nc2ncc3c(n2)N(c2cccc(NC(=O)/C=C/CN(C)C)c2)C(=O)N(Cc2ccccc2)C3)cn1 [Compound 16, (E)-N-(3-(3-benzyl-7-((1-(2-methoxyethyl)-1H-pyrazol-4-yl)amino)-2-oxo-3,4-dihydropyrimido[4,5-d]pyrimidin-1(2H)-yl)phenyl)-4-(dimethylamino)but-2-enamide]
3 | 4 | 4.5 | 638 | 105 | 108 | CC(c1ccccc1)N1Cc2cnc(Nc3cnn(C)c3)nc2N(c2cccc(NC(=O)/C=C/CN(C)C)c2)C1=O (racemic) [Compound 10, (E)-4-(dimethylamino)-N-(3-(7-((1-methyl-1H-pyrazol-4-yl)amino)-2-oxo-3-(1-phenylethyl)-3,4-dihydropyrimido[4,5-d]pyrimidin-1(2H)-yl)phenyl)but-2-enamide]
4 | 164 | 413 | 920 | 2810 | 2570 | C=CC(=O)NC1CCCC(N2C(=O)N(Cc3ccccc3)Cc3cnc(Nc4ncc(C)s4)nc32)C1 (stereo not shown) [Compound 30, N-(3-(3-benzyl-7-((5-methylthiazol-2-yl)amino)-2-oxo-3,4-dihydropyrimido[4,5-d]pyrimidin-1(2H)-yl)cyclohexyl)acrylamide]
5 | 0.4 | 4200 | 5380 | 1350 | 8720 | Cn1cc(Nc2ncc3c(n2)N(c2cccc(NC(=O)/C=C/Cl)c2)C(=O)N(Cc2ccccc2)C3)cn1 [Compound 50, (E)-N-(3-(3-benzyl-7-((1-methyl-1H-pyrazol-4-yl)amino)-2-oxo-3,4-dihydropyrimido[4,5-d]pyrimidin-1(2H)-yl)phenyl)-3-chloroacrylamide]
6 | 45 | 83.9 | 2080 | 2810 | 3350 | CN(C)C/C=C/C(=O)N(C)c1cccc(N2C(=O)N(Cc3ccccc3)Cc3cnc(Nc4cnn(C)c4)nc32)c1 [Compound 21, (E)-N-(3-(3-benzyl-7-((1-methyl-1H-pyrazol-4-yl)amino)-2-oxo-3,4-dihydropyrimido[4,5-d]pyrimidin-1(2H)-yl)phenyl)-4-(dimethylamino)-N-methylbut-2-enamide]
7 | 98 | 323 | ≥ 10000 | 1700 | 1870 | C=CC(=O)NC1CCCC(N2C(=O)N(Cc3ccccc3)Cc3cnc(Nc4cn(C)nc4Cl)nc32)C1 (stereo not shown) [Compound 40, N-(3-(3-benzyl-7-((3-chloro-1-methyl-1H-pyrazol-4-yl)amino)-2-oxo-3,4-dihydropyrimido[4,5-d]pyrimidin-1(2H)-yl)cyclohexyl)acrylamide]
8 | 5 | 222 | 3080 | 3330 | 3690 | CN(C)C/C=C/C(=O)Nc1cccc(N2C(=O)N(Cc3ccccc3)Cc3cnc(Nc4cn(C)nn4)nc32)c1 [Compound 26, (E)-N-(3-(3-benzyl-7-((1-methyl-1H-1,2,3-triazol-4-yl)amino)-2-oxo-3,4-dihydropyrimido[4,5-d]pyrimidin-1(2H)-yl)phenyl)-4-(dimethylamino)but-2-enamide]
9 | 1 | 1.5 | 59 | 45 | 42 | C=CC(=O)Nc1cccc(N2C(=O)N(Cc3ccccc3)Cc3cnc(Nc4cnn(CCO)c4)nc32)c1 [Compound 13, N-(3-(3-benzyl-7-((1-(2-hydroxyethyl)-1H-pyrazol-4-yl)amino)-2-oxo-3,4-dihydropyrimido[4,5-d]pyrimidin-1(2H)-yl)phenyl)acrylamide]
10 | 2 | 19.7 | 615 | 414 | 893 | CN(C)C/C=C/C(=O)Nc1cccc(N2C(=O)N(Cc3ccc(F)cc3)Cc3cnc(Nc4cnn(C)c4)nc32)c1 [Compound 2, (E)-4-(dimethylamino)-N-(3-(3-(4-fluorobenzyl)-7-((1-methyl-1H-pyrazol-4-yl)amino)-2-oxo-3,4-dihydropyrimido[4,5-d]pyrimidin-1(2H)-yl)phenyl)but-2-enamide]
11 | 167 | 372 | ≥ 10000 | ≥ 10000 | ≥ 10000 | C=CC(=O)N1CCC(N2C(=O)N(Cc3ccccc3)Cc3cnc(Nc4cn(C)nc4Cl)nc32)C1 (racemic) [Compound 37, 1-(1-acryloylpyrrolidin-3-yl)-3-benzyl-7-((3-chloro-1-methyl-1H-pyrazol-4-yl)amino)-3,4-dihydropyrimido[4,5-d]pyrimidin-2(1H)-one]
12 | 5 | 37.8 | 6080 | 2570 | 2920 | CN(C)C/C=C/C(=O)Nc1cccc(N2C(=O)N(Cc3ccccc3)Cc3cnc(Nc4cnn(CCO)c4)nc32)c1 [Compound 14, (E)-N-(3-(3-benzyl-7-((1-(2-hydroxyethyl)-1H-pyrazol-4-yl)amino)-2-oxo-3,4-dihydropyrimido[4,5-d]pyrimidin-1(2H)-yl)phenyl)-4-(dimethylamino)but-2-enamide]
13 | 9 | 37.6 | 56 | 123 | 106 | CN(C)C/C=C/C(=O)Nc1cccc(N2C(=O)N(Cc3ccccc3)Cc3cnc(Nc4ccc5c(c4)cc(C#N)n5C)nc32)c1 [Compound 44, (E)-N-(3-(3-benzyl-7-((2-cyano-1-methyl-1H-indol-5-yl)amino)-2-oxo-3,4-dihydropyrimido[4,5-d]pyrimidin-1(2H)-yl)phenyl)-4-(dimethylamino)but-2-enamide]
14 | 13 | 40.9 | 676 | 184 | 131 | C=CC(=O)Nc1cccc(N2C(=O)N(Cc3ccc(F)cc3)Cc3cnc(Nc4cnn(C)c4)nc32)c1 [Compound 3, N-(3-(3-(4-fluorobenzyl)-7-((1-methyl-1H-pyrazol-4-yl)amino)-2-oxo-3,4-dihydropyrimido[4,5-d]pyrimidin-1(2H)-yl)phenyl)acrylamide]
